The record followed here is PubChem BioAssay (NCI).

SMILES strings stand for the structures. Where “and” joins values, the source holds several entries; their conditions need not be identical. Equal values may be shown once.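 Compound exposure: 48 hours, 5 concentrations, 96-well plates. At the GI50, growth is halved. TGI: concentration producing complete growth inhibition.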 A value given as a limit tells only on which side of the number the result lay.

Test systems include NCI-H522 lung; CAKI-1 renal; OVCAR-8 ovarian; MOLT-4 leukemia; HCT-116 colon; RXF 393 renal; SR leukemia; MALME-3M melanoma; K-562 leukemia; MDA-MB-435.
Holding throughout (experiment): NCI tumour cell line growth inhibition, 48 h

Turning to `Cc1cc(Cl)ccc1N1C(=O)C(=O)C(c2nc3ccccc3o2)C(=O)C1=O`, the TGI with NCI-H522 lung, in the assay with CAKI-1 renal, with OVCAR-8 ovarian, in the assay on MOLT-4 leukemia, with HCT-116 colon and with RXF 393 renal was above 100 µM in each case. For the same molecule, the TGI with SR leukemia and with MALME-3M melanoma was above 100 µM in each case.

As to `CC1NCCc2c1[nH]c1cc(O)ccc21` (centres undefined), the TGI in the assay on CAKI-1 renal, with OVCAR-8 ovarian, with MOLT-4 leukemia, in the assay on HCT-116 colon, with K-562 leukemia and with RXF 393 renal was above 100 µM throughout. Besides, the TGI with MALME-3M melanoma is above 100 µM.

For `CCOC(=O)N1CCc2cc(OC)c(OC)cc2/C1=C/c1ccc(OC)c(OC)c1`, the TGI in the assay on NCI-H522 lung, in the assay with MOLT-4 leukemia, with HCT-116 colon, in the assay on K-562 leukemia, in the assay with RXF 393 renal and in the assay on SR leukemia was above 100 µM each time. Further, the TGI with MALME-3M melanoma amounted to 67.6 µM.

Turning to `CN(C)CCC(=O)N1CCc2c([nH]c3ccccc23)C1c1cccnc1` (centres undefined), the TGI in the assay on NCI-H522 lung, with CAKI-1 renal, in the assay with OVCAR-8 ovarian, with MOLT-4 leukemia, with HCT-116 colon and in the assay on K-562 leukemia was above 100 µM each time. Besides, the TGI in the assay on RXF 393 renal was 59.7 µM; in the assay with SR leukemia, above 100 µM.

Consider `CN(C)CCC(/C=C/c1ccccc1)=N\Nc1ccc(Cl)cc1`, for which the TGI with NCI-H522 lung was determined as 7.77 µM; with OVCAR-8 ovarian it was 14 µM; in the assay on MOLT-4 leukemia it was 5.43 µM; in the assay with HCT-116 colon, 13.7 µM; in the assay with K-562 leukemia, 5.02 µM; in the assay on RXF 393 renal it was 20.9 µM. For the same molecule, the TGI in the assay with MALME-3M melanoma amounted to 26.2 µM.

`C=C[Si](C)(C)COC(=O)/C(C#N)=C/C=C/c1ccccc1`: the TGI with NCI-H522 lung, in the assay on OVCAR-8 ovarian, in the assay on MOLT-4 leukemia, in the assay with HCT-116 colon, in the assay on K-562 leukemia and in the assay with RXF 393 renal was above 100 µM in each case. Also, the TGI in the assay with SR leukemia is 79.9 µM; with MALME-3M melanoma, above 100 µM.

As to `NC1=NCC(c2ccccn2)C1c1ccc(F)cc1` (centres undefined), the TGI in the assay with NCI-H522 lung, in the assay on CAKI-1 renal, with OVCAR-8 ovarian, in the assay on MOLT-4 leukemia, in the assay with HCT-116 colon and with K-562 leukemia was above 100 µM in each case. Further, the TGI in the assay with RXF 393 renal, with SR leukemia and in the assay on MALME-3M melanoma was above 100 µM in each case.

On to `Cc1cc(Cl)cc2c1NC(=O)C2(O)CC(=O)c1ccc(F)cc1` (centres undefined), for which the TGI in the assay with CAKI-1 renal is above 100 µM; in the assay with OVCAR-8 ovarian, above 100 µM; in the assay on HCT-116 colon it was above 100 µM; with RXF 393 renal it was 41.5 µM; in the assay with MALME-3M melanoma, 75.1 µM.

Regarding `NC(=NCCO)c1ccc(N2CCCN(c3ccc(C(N)=NCCO)cc3)CC2)cc1`, the GI50 was above 100 µM with MDA-MB-435; above 100 µM with CAKI-1 renal; above 100 µM in the assay on OVCAR-8 ovarian; above 100 µM with HCT-116 colon; 72.9 µM in the assay with MALME-3M melanoma. Besides, the TGI in the assay with MDA-MB-435, in the assay on CAKI-1 renal, in the assay on OVCAR-8 ovarian, in the assay with HCT-116 colon and with MALME-3M melanoma was above 100 µM in each case.

For `Cc1cccc(Cl)c1NC(=O)c1cccc([N+](=O)[O-])c1O`, the TGI is 50.4 µM in the assay on NCI-H522 lung; above 100 µM in the assay on CAKI-1 renal; above 100 µM with OVCAR-8 ovarian; above 100 µM in the assay on MOLT-4 leukemia; above 100 µM in the assay on HCT-116 colon; above 100 µM in the assay with K-562 leukemia. Further, the TGI with RXF 393 renal came out at 50.7 µM; with MALME-3M melanoma, 84.7 µM.

In the case of `COC1C(O)CC(OC2CC(OC3CC(O[C@@H]4C(=O)c5c(cc6cc(OC7CC(OC8CC(O)C(O)C(C)O8)C(O)C(C)O7)c(C)c(O)c6c5O)C[C@H]4[C@H](OC)C(=O)[C@@H](O)[C@@H](C)O)OC(C)C3O)OC(C)C2O)OC1C` (some centres undefined), the TGI with NCI-H522 lung was 0.0358 µM; in the assay with CAKI-1 renal, above 100 µM; with OVCAR-8 ovarian, above 100 µM; with MOLT-4 leukemia, 0.222 µM; in the assay with HCT-116 colon, above 100 µM; in the assay on K-562 leukemia it was above 100 µM. Besides, the TGI with SR leukemia amounted to 0.558 µM; with MALME-3M melanoma, 0.243 µM. The GI50 in the assay on K-562 leukemia is below 0.019 µM.

For `Cc1nc2ccccc2c(/C=C/c2ccccc2)c1C(=O)/C=C/c1ccc(Cl)cc1`, the GI50 with MOLT-4 leukemia is 1.09 µM; in the assay with HCT-116 colon it was 0.485 µM; with K-562 leukemia it was 0.868 µM; with RXF 393 renal, 1.28 µM; in the assay with SR leukemia, 0.54 µM. The TGI in the assay on MOLT-4 leukemia came to 6.49 µM; with HCT-116 colon, 1.81 µM; in the assay on K-562 leukemia, 4.87 µM; with RXF 393 renal, 2.64 µM; with SR leukemia, 3.75 µM.

Regarding `O=[N+]([O-])c1ccc2nc3ccscc-3c2c1`, the TGI in the assay on NCI-H522 lung was 59.9 µM; with CAKI-1 renal, 26.2 µM; in the assay on MOLT-4 leukemia it was above 100 µM; in the assay with K-562 leukemia, above 100 µM; in the assay with MALME-3M melanoma, above 100 µM.

Take `CC(=O)OCC1OC(n2c(=S)n(-c3ccccc3)c(=O)c3cc(Br)ccc32)C(OC(C)=O)C(OC(C)=O)C1OC(C)=O` (centres undefined): the TGI in the assay with NCI-H522 lung, in the assay on CAKI-1 renal, in the assay on OVCAR-8 ovarian, in the assay on MOLT-4 leukemia, in the assay on HCT-116 colon and in the assay with K-562 leukemia was above 100 µM each time. Besides, the TGI in the assay on RXF 393 renal, in the assay with SR leukemia and in the assay on MALME-3M melanoma was above 100 µM throughout. The GI50 in the assay on HCT-116 colon was above 100 µM; with RXF 393 renal, 33.7 µM and > 100 µM; with SR leukemia, > 100 µM and 12 µM; in the assay with MALME-3M melanoma it was above 100 µM.

As to `Cc1cccc2cc3cccc(C(=O)NCCN(C)C)c3nc12`, the TGI with NCI-H522 lung worked out at 1.19 µM; with CAKI-1 renal, 0.327 µM; in the assay with OVCAR-8 ovarian, 5.58 µM; in the assay with MOLT-4 leukemia, 0.344 µM; in the assay on HCT-116 colon it was 1.54 µM; in the assay on K-562 leukemia, 11.3 µM. In addition, the TGI in the assay on RXF 393 renal was 0.931 µM; in the assay on SR leukemia it was 0.118 µM; in the assay with MALME-3M melanoma, 1.11 µM.

As for `O=C1[C@@H]2C(c3ccncc3)=NO[C@@H]2C(=O)N1c1ccc(Cc2ccc(N3C(=O)[C@H]4C(c5ccncc5)=NO[C@H]4C3=O)cc2)cc1`, the TGI in the assay with CAKI-1 renal, in the assay with OVCAR-8 ovarian, in the assay on MOLT-4 leukemia, in the assay with K-562 leukemia, in the assay with RXF 393 renal and in the assay with MALME-3M melanoma was above 100 µM throughout.
